The record followed here is BindingDB's records for doi:10.1074/jbc.M111.326777 (University of North Carolina, 2012).

Holding throughout (assay): Enzymatic Assay
Holding throughout (conditions): pH 7.5; 24 °C

The target in one assay is T1, Phosphodiesterase (Trypanosoma cruzi, UniProt Q53I59).
T1 sequence (Q53I59 whole entry): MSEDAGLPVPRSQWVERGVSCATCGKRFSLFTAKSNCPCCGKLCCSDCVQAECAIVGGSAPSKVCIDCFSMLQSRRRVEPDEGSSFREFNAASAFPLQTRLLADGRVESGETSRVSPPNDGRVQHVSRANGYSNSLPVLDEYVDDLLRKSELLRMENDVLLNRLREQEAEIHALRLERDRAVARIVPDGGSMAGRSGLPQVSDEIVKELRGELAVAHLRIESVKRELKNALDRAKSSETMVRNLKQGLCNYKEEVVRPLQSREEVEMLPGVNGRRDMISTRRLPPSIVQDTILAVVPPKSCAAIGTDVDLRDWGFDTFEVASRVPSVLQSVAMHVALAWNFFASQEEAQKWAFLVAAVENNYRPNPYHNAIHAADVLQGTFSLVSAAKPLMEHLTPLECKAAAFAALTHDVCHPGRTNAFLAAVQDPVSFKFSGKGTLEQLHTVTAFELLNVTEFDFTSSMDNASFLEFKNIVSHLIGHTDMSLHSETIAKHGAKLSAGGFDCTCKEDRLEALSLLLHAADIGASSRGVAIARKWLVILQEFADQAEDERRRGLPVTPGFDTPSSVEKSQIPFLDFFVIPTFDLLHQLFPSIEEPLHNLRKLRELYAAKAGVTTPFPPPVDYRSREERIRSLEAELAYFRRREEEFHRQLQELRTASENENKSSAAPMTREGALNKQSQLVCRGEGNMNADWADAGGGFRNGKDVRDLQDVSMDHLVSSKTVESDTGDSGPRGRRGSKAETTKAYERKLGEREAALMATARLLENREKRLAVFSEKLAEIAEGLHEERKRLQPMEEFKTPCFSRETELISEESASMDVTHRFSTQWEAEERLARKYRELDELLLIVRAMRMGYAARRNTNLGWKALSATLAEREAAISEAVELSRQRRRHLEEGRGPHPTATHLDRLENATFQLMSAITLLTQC
Here is the method: (§1) Enzymatic activities were assayed using [3H] cAMP and [3H]cGMP as substrate.

Assay [1] addresses cGMP-dependent 3',5'-cyclic phosphodiesterase (Homo sapiens, UniProt O00408). Here is the method:
as §1

Assay [2] concerns the target cAMP-specific 3',5'-cyclic phosphodiesterase 4D (Homo sapiens, UniProt Q08499). The procedure: as §1
Assay [3] has as its target cGMP-inhibited 3',5'-cyclic phosphodiesterase 3A (Homo sapiens, UniProt Q14432). Here is the method: as §1
For assay [4], the target named is High affinity cAMP-specific and IBMX-insensitive 3',5'-cyclic phosphodiesterase 8A (Homo sapiens, UniProt O60658). The procedure: as §1
Chain of High affinity cAMP-specific and IBMX-insensitive 3',5'-cyclic phosphodiesterase 8A (O60658 whole entry): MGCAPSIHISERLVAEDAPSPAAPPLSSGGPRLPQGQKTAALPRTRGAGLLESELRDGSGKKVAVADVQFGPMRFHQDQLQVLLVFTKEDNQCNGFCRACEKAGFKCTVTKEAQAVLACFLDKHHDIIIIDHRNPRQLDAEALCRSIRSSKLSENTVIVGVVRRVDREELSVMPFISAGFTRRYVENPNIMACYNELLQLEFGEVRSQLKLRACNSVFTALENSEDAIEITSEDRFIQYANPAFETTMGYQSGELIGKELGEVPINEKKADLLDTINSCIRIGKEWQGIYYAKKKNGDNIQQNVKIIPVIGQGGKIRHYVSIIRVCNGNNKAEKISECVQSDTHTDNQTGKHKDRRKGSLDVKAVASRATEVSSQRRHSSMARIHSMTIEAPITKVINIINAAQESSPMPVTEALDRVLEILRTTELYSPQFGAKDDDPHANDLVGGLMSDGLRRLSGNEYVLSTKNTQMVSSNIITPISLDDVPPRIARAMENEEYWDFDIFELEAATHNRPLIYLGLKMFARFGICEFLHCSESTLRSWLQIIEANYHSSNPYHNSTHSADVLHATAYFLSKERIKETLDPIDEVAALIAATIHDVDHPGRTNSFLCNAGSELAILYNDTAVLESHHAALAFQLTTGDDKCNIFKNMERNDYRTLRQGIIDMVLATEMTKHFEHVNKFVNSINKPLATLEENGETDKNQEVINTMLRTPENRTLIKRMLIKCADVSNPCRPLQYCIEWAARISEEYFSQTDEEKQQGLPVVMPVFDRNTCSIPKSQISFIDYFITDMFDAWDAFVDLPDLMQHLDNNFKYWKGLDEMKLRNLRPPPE
Assay [5] deals with cGMP-specific 3',5'-cyclic phosphodiesterase (Homo sapiens, UniProt O76074). The procedure: as §1

pIC50: −log10 of the molar value. Where a name gives a salt, the structure may show the parent alone.

Chain of cGMP-inhibited 3',5'-cyclic phosphodiesterase 3A (Q14432 whole entry): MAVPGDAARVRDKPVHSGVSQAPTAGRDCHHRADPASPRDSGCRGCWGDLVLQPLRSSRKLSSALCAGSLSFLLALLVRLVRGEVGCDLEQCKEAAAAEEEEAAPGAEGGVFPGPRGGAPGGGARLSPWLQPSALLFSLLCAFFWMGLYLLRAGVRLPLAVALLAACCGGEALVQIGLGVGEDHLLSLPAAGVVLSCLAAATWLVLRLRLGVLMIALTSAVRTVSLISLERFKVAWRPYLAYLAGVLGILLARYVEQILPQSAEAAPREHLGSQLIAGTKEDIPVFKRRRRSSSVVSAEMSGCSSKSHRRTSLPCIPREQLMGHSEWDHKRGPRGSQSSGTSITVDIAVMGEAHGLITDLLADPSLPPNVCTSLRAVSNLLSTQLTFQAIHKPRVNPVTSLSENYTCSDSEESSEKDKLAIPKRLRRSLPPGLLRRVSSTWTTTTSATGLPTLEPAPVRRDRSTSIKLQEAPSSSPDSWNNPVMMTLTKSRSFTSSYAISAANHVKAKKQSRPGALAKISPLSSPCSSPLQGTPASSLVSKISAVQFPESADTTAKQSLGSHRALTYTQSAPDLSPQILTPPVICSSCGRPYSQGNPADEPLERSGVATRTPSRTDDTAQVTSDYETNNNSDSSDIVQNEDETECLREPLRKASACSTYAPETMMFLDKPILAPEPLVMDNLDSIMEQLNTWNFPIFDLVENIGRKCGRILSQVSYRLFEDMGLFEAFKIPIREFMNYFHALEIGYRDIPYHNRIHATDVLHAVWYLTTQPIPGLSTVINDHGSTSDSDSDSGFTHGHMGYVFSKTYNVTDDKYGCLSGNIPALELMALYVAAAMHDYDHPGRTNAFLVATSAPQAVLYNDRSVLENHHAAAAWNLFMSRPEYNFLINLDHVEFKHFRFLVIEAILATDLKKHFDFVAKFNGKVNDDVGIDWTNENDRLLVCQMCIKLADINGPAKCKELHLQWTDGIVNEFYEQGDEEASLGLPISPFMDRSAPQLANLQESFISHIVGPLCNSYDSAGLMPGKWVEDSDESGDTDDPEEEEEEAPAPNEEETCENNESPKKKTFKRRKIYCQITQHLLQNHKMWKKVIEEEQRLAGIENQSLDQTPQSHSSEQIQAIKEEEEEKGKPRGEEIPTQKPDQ
Chain of cAMP-specific 3',5'-cyclic phosphodiesterase 4D (Q08499 whole entry): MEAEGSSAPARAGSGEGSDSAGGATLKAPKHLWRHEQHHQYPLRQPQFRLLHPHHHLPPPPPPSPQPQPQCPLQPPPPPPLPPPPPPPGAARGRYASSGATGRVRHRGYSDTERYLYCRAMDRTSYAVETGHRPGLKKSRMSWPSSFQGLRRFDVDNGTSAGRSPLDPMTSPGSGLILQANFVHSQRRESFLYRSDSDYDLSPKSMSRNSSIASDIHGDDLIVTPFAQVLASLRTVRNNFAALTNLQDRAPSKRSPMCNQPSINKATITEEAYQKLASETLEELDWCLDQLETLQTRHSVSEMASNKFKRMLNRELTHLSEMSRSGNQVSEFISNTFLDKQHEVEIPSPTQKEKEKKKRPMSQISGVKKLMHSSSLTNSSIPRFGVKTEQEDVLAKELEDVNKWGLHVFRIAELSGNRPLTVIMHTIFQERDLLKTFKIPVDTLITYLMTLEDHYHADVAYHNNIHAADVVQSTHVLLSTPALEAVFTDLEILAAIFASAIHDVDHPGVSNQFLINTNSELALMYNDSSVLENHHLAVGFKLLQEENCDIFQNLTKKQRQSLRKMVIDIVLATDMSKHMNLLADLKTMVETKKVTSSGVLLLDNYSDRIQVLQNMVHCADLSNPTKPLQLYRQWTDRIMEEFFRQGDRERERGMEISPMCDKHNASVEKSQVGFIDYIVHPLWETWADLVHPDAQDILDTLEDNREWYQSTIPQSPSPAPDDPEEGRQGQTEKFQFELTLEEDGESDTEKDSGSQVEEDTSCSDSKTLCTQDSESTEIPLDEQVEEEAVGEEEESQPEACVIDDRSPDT
Chain of cGMP-dependent 3',5'-cyclic phosphodiesterase (O00408 whole entry): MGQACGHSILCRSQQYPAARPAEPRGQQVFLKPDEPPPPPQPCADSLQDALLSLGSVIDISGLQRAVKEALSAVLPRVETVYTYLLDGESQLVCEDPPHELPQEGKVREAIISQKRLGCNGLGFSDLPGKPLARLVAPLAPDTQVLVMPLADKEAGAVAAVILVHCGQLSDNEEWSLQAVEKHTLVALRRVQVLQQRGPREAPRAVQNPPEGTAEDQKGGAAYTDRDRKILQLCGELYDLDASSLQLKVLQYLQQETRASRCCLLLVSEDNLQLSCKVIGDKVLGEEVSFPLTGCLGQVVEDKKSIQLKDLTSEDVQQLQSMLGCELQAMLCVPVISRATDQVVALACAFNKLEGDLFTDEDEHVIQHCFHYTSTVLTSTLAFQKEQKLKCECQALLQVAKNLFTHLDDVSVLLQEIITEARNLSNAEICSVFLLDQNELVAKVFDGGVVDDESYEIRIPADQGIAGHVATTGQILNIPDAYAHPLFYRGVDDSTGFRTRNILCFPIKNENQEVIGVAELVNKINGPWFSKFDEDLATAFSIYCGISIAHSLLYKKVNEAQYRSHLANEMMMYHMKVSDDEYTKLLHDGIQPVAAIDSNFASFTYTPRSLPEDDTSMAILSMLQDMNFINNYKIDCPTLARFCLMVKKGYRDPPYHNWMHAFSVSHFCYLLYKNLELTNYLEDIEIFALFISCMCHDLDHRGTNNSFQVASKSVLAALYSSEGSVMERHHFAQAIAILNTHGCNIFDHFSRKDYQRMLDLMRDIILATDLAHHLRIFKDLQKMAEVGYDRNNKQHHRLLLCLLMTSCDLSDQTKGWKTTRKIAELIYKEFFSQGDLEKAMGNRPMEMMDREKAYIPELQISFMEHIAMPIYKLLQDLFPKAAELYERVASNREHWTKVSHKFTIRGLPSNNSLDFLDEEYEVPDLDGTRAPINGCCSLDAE

The term pIC50 denotes the negative decadic logarithm of the IC50, by convention in mol/L. In the case of `COc1ccc(Cc2nccc3cc(OC)c(OC)cc23)cc1OC`, on Phosphodiesterase, the negative logarithm of the IC50 (pIC50) was 4.60. On the same count and under the same terms, for `COc1ccc([C@@H]2CNC(=O)C2)cc1OC1CCCC1` (racemic) [Adeo] the value was below 4.00. In the case of `CCCCCC[C@H]([C@H](C)O)n1cnc2c(N)ncnc21` (relative stereo) [3-(6-amino-9H-purin-9-yl)nonan-2-ol], the pIC50 was 6.10 in assay [1] and below 4.00 against Phosphodiesterase. As to `CC(=O)CCCCn1c(=O)c2c(ncn2C)n(C)c1=O` [1-(5-Oxohexyl)theobromine (pentoxifylline)], the pIC50 against Phosphodiesterase is below 4.00. In the case of `CCOC(=O)c1cnc2c(cnn2CC)c1N=NC(C)C` [1-Ethyl-4-(N'-isopropylidene-hydrazino)-1H-pyrazolo[3,4-b]pyridine-5-carboxylic acid ethyl ester], the pIC50 in assay [2] was 5.70; against Phosphodiesterase, 6.15. `CC(C)Cn1c(=O)n(C)c(=O)c2[nH]cnc21` [1-methyl-3-(2-methylpropyl)-2,3,6,7-tetrahydro-1H-purine-2,6-dione]: the pIC50 on Phosphodiesterase is 4.17. For the compound `COc1cc(-c2ccc(=O)[nH]n2)ccc1OC(F)F` [6-[4-(difluoromethoxy)-3-methoxyphenyl]-2,3-dihydropyridazin-3-one], the pIC50 in assay [3] was 6.30; against Phosphodiesterase it was below 4.00. For `COc1cc2c(cc1OC)-c1c/c(=N\c3c(C)cc(C)cc3C)n(C)c(=O)n1CC2` [CAS_5537], the pIC50 in assay [3] was 9.52; against Phosphodiesterase, 5.41. In the case of `OCCN(CCO)c1nc(N2CCCCC2)c2nc(N(CCO)CCO)nc(N3CCCCC3)c2n1` [Dipyridamine], the pIC50 is 5.16 on Phosphodiesterase and 6.30 in assay [4]. For the compound `Cc1[nH]c(=O)c(C#N)cc1-c1ccncc1` [Milrinone], the pIC50 on Phosphodiesterase was below 4.00. On Phosphodiesterase, `CN(C(=O)CCCOc1ccc2[nH]c(=O)ccc2c1)C1CCCCC1` [N-Cyclohexyl-N-methyl-4-(2-oxo-1,2-dihydro-quinolin-6-yloxy)-butyramide] had a negative-log IC50 (pIC50) below 4.00. The compound `CCCOc1cc(CC2CNC(=O)N2)ccc1OC` (stereo not given) [Ro20-1724] showed a pIC50 at Phosphodiesterase below 4.00.

Compound `CCCc1nn(C)c2c(=O)[nH]c(-c3cc(S(=O)(=O)N4CCN(C)CC4)ccc3OCC)nc12` [SILDENAFIL CITRATE] showed a pIC50 at Phosphodiesterase below 6.00. As for `CCCc1nn(C)c2c(=O)[nH]c(-c3cc(S(=O)(=O)NC(=O)OC(C)C)ccc3OCC)nc12` [Wyq16#], the pIC50 was 6.64 against Phosphodiesterase and 8.52 in assay [5].
